{"source": "patent US8575187B2", "about": "“Combinations of anilinopyrimidines and pyrion compounds” (Janssen Pharmaceutica, NV, priority 2008, dated 2013)", "assay_type_in_all_cases": "cell-based", "key": {"[1]": {"test_system": "Staphylococcus aureus (g+) LMG 8064", "experiment": "Poison Plate Assay, bacteria on Tryptose Agar", "conditions": "ppm total active ingredient, growth evaluated after five days, 27° C.", "experimental": "(§1) Experiment 1: Poison Plate Assay\n(§2) • pyrimethanil (I-a) • cyprodinil (I-b) • mepanipyrim (I-c) Name of Component (II): • 1-hydroxy-2-pyridinone (II-a) • ciclopirox (II-b) • ciclopirox olamine (II-c) • piroctone (II-d) • piroctone olamine (II-e) • rilopirox (II-f) • pyrion disulfide (II-g) • sodium pyrithione (II-h) • zinc pyrithione (II-i) Test Models: • Fungi: to each well of a 24-well microtiter plate, 1000 μl of Glucose Agar (GA: 10 g glucose, 1.5 g K2HPO4, 2 g KH2PO4, 1 g (NH4)2SO4, 0.5 g MgSO4 and 12.5 g agar in 1 liter deionised water) containing the appropriate combination of the test compounds in one of the concentrations of a dose series is added. The nutrient medium is inoculated with the test fungi by adding a spore/mycelium suspension (10 μl) or a small piece of agar from the margin of an actively growing colony and incubated under dark at 27° C. with 70% relative humidity. […] The nutrient medium is inoculated by adding 10 μl of an actively growing liquid culture of the test bacteria in tryptose broth (without agar), and incubated under dark at 27° C. with 70% relative humidity. The growth is evaluated after five days. Concentrations: • Synergy experiment with hydroxypyridone: • MIC values for single compounds were collected from previous screening experiments. These MIC values were used as a guide in determining of the most suitable test dose ranges. For the combination experiments, two overlapping dose series were used, in order to maximise the chance of the MIC values falling within the test concentration range for all combinations: • Series 1: 50.00-37.50-28.13-21.09-15.82-11.87-8.90-6.67-5.01-3.75-2.82-2.11 ppm • Series 2: 25.00-18.75-14.06-10.55-7.91-5.93-4.45-3.34-2.50-1.88-1.41-1.06 ppm • Synergy experiments with bispyrithione and sodium pyrithione: 10.00-7.50-5.63-4.22-3.16-2.37-1.78-1.33-1.00-0.75-0.56-0.42 ppm\n(§3) (2000) “Measuring synergy” cosmetics & Toiletries 115(11): 59-62; and Lada, A., A. N. Petrocci, H. A. Green, and J. J. Merianos (1977) “Antimicrobial composition” U.S. Pat. No. 4,061,750, 3 pp.): […]"}, "[2]": {"test_system": "Chaetomium globosum ATCC6205", "experiment": "Poison Plate Assay, fungi on Glucose Agar", "conditions": "% (I-a) + % (II-g), ppm total active ingredient, growth evaluated after two weeks, 27° C.", "experimental": "as §1, §2, §3"}, "[3]": {"test_system": "Ulocladium atrum IMI214699a", "experiment": "Poison Plate Assay, fungi on Glucose Agar", "conditions": "% (I-a) + % (II-h), ppm total active ingredient, growth evaluated after two weeks, 27° C.", "experimental": "as §1, §2, §3"}}, "data": [{"molecule": "[O-][n+]1ccccc1SSc1cccc[n+]1[O-]", "note": "[(I-a) + (II-g) 0 + 100, pyrion disulfide]", "values": [{"measurement": "MIC", "setting": "[1]; LMG8064, 120 h, % (I-a) + % (II-g), read-out: MIC-values (minimum inhibitory concentration) in ppm", "value": 213, "unit": "µg/mL"}, {"measurement": "MIC", "setting": "[2]; ATCC6205, 336 h, read-out: MIC-values (minimum inhibitory concentration) in ppm", "value": 40, "unit": "µg/mL"}]}, {"molecule": "Cc1cc(C)nc(Nc2ccccc2)n1", "note": "[(I-a) + (II-g) 100 + 0, pyrimethanil]", "values": [{"measurement": "MIC-values (minimum inhibitory concentration) in ppm", "setting": "[1]; % (I-a) + % (II-g)", "value": 3.16, "unit": "ppm"}, {"measurement": "MIC-values (minimum inhibitory concentration) in ppm", "setting": "[2]", "value": 1.78, "unit": "ppm"}]}, {"molecule": "Cc1cc(C)nc(Nc2ccccc2)n1", "note": "[(I-a) + (II-h) 100 + 0, pyrimethanil]", "values": [{"measurement": "MIC-values (minimum inhibitory concentration) in ppm", "setting": "[1]; % (I-a) + % (II-h)", "value": 4.22, "unit": "ppm"}, {"measurement": "MIC-values (minimum inhibitory concentration) in ppm", "setting": "[3]", "value": 3.16, "unit": "ppm"}]}]}
